The text below walks through data of ChEMBL document CHEMBL3046114, “Synthesis and phytotoxic activity of novel acylthiourea and 2H-1,2,4-thiadiazolo[2,3-]pyrimidine derivatives” (2012).

What all share (type): functional
Common to all, as to conditions: read-out: GI

The test system of assay [1] is Echinochloa crus-galli. In words: Phytotoxicity against Echinochloa crus-galli (barnyard grass) germinated seed assessed as growth inhibition at 100 mg/L after 72 hr by culture dish method.
Assay [2] relates to Brassica napus. In words: Phytotoxicity against Brassica napus (oilseed rape) germinated seed assessed as growth inhibition at 100 mg/L after 72 hr by culture dish method.
In assay [3] the test system is Brassica napus. As to the kind of experiment: Phytotoxicity against Brassica napus (oilseed rape) germinated seed assessed as growth inhibition at 10 mg/L after 72 hr by culture dish method.
Assay [4] relates to Chenopodium ficifolium. As to the kind of experiment: Phytotoxicity against Chenopodium ficifolium germinated seed assessed as growth inhibition at 100 mg/L after 72 hr by culture dish method.
Assay [5] relates to Chenopodium ficifolium. In words: Phytotoxicity against Chenopodium ficifolium germinated seed assessed as growth inhibition at 10 mg/L after 72 hr by culture dish method.
Assay [6] deals with Digitaria ciliaris. As to the kind of experiment: Phytotoxicity against Digitaria ciliaris germinated seed assessed as growth inhibition at 100 mg/L after 72 hr by culture dish method.
Assay [7] deals with Echinochloa crus-galli. In words: Phytotoxicity against Echinochloa crus-galli (barnyard grass) germinated seed assessed as growth inhibition at 10 mg/L after 72 hr by culture dish method.
In assay [8] the test system is Digitaria ciliaris. As to the kind of experiment: Phytotoxicity against Digitaria ciliaris germinated seed assessed as growth inhibition at 10 mg/L after 72 hr by culture dish method.

Molecules are shown by their SMILES.

Take `CSc1cc(C)nc(NC(=S)NC(=O)c2c(-c3ccc(Cl)cc3Cl)noc2C)n1`: the inhibition of growth at 100 µg/mL in assay [1] was 47.1%; in assay [2], 73.6%; in assay [4], 86.1%; in assay [6] it was 45.5%. Besides, the inhibition of growth at 10 µg/mL was found to be 42.4% in assay [3], 32.8% in assay [5], 27.4% in assay [7] and 26.7% in assay [8].

As for `COc1cc(Cl)nc(NC(=S)NC(=O)c2c(-c3ccc(Cl)cc3Cl)noc2C)n1`, the inhibition of growth at 100 µg/mL in assay [1] was 56.3%; in assay [2], 61%; in assay [4] it was 53.2%; in assay [6] it was 62.2%. For the same compound, the inhibition of growth at 10 µg/mL in assay [3] came out at 30.7%; in assay [5] it was 21.9%; in assay [7], 18.5%; in assay [8], 14.6%.

Take `COc1cc(OC)nc(NC(=S)NC(=O)c2c(-c3ccc(Cl)cc3Cl)noc2C)n1`: the inhibition of growth at 100 µg/mL in assay [1] came out at 60.9%; in assay [2] it was 70.8%; in assay [4], 78.6%; in assay [6], 65.9%. Besides, the inhibition of growth at 10 µg/mL was found to be 35.2% in assay [3], 30.7% in assay [5], 21.8% in assay [7] and 32% in assay [8].

Regarding `COc1cc(SC)nc(NC(=S)NC(=O)c2c(-c3ccc(Cl)cc3Cl)noc2C)n1`, the inhibition of growth at 100 µg/mL in assay [1] was found to be 40.9%; in assay [2] it was 69.2%; in assay [4], 60.3%; in assay [6] it was 55.6%. Besides, the inhibition of growth at 10 µg/mL is 18.7% in assay [3], -8.31% in assay [5], 19.3% in assay [7] and 34.8% in assay [8].

Turning to `Cc1cc(C)n2s/c(=N\C(=O)c3c(-c4ccc(Cl)cc4Cl)noc3C)nc2n1`, the inhibition of growth at 100 µg/mL stood at 76% in assay [1], 76.8% in assay [2], 76.9% in assay [4] and 84.9% in assay [6]. For the same compound, the inhibition of growth at 10 µg/mL in assay [3] worked out at 46.3%; in assay [5] it was 26.7%; in assay [7], 25.2%; in assay [8], 15.2%.

Consider `Cc1cc(O)n2s/c(=N\C(=O)c3c(-c4ccc(Cl)cc4Cl)noc3C)nc2n1`, for which the inhibition of growth at 100 µg/mL is 65.8% in assay [1], 79.2% in assay [2], 59.3% in assay [4] and 72.1% in assay [6]. Moreover, the inhibition of growth at 10 µg/mL amounted to 38.5% in assay [3], 32.9% in assay [5], 30.5% in assay [7] and 30.1% in assay [8].

Regarding `Cc1onc(-c2ccc(Cl)cc2Cl)c1C(=O)/N=c1/nc2nc(Cl)cc(C)n2s1`, the inhibition of growth at 100 µg/mL in assay [1] is 55.6%; in assay [2] it was 70.2%; in assay [4] it was 73.6%; in assay [6] it was 68.1%. The inhibition of growth at 10 µg/mL in assay [3] came to 20.1%; in assay [5], 18.6%; in assay [7], 25.8%; in assay [8], 32.8%.

For the compound `COc1cc(C)nc2n/c(=N/C(=O)c3c(-c4ccc(Cl)cc4Cl)noc3C)sn12`, the inhibition of growth at 100 µg/mL in assay [1] worked out at 80.5%; in assay [2] it was 80.6%; in assay [4], 80.4%; in assay [6], 80.6%. Moreover, the inhibition of growth at 10 µg/mL in assay [3] amounted to 26.4%; in assay [5], 45.7%; in assay [7], 30.9%; in assay [8], 50.3%.

On to `CSc1cc(C)nc2n/c(=N/C(=O)c3c(-c4ccc(Cl)cc4Cl)noc3C)sn12`, for which the inhibition of growth at 100 µg/mL in assay [1] was 75.4%; in assay [2], 62.8%; in assay [4], 75.2%; in assay [6], 70.6%. In addition, the inhibition of growth at 10 µg/mL in assay [3] is 32.8%; in assay [5], 21.9%; in assay [7], 37.5%; in assay [8] it was 26.8%.

`COc1cc(Cl)nc2n/c(=N/C(=O)c3c(-c4ccc(Cl)cc4Cl)noc3C)sn12`: the inhibition of growth at 100 µg/mL in assay [1] was determined as 40.8%; in assay [2] it was 70.8%; in assay [4], 65.9%; in assay [6], 72.8%. Also, the inhibition of growth at 10 µg/mL in assay [3] was 28.6%; in assay [5] it was 19.3%; in assay [7] it was 10.8%; in assay [8], 16.5%.

Take `COc1cc(OC)n2s/c(=N\C(=O)c3c(-c4ccc(Cl)cc4Cl)noc3C)nc2n1`: the inhibition of growth at 100 µg/mL in assay [1] turned out to be 85.6%; in assay [2] it was 85.6%; in assay [4], 82.7%; in assay [6], 85.3%. In addition, the inhibition of growth at 10 µg/mL in assay [3] was 49.3%; in assay [5], 28.9%; in assay [7], 43.2%; in assay [8] it was 53.8%.

Take `COc1cc(SC)nc2n/c(=N/C(=O)c3c(-c4ccc(Cl)cc4Cl)noc3C)sn12`: the inhibition of growth at 100 µg/mL in assay [1] worked out at 55.6%; in assay [2], 75.8%; in assay [4] it was 68.3%; in assay [6], 79.6%. In addition, the inhibition of growth at 10 µg/mL in assay [3] was 27.4%; in assay [5] it was 23.8%; in assay [7], 21.4%; in assay [8] it was 19.8%.

For `Cc1cc(C)nc(NC(=S)NC(=O)c2c(-c3ccc(Cl)cc3Cl)noc2C)n1`, the inhibition of growth at 100 µg/mL in assay [1] was 64.7%; in assay [2] it was 68%; in assay [4], 65.4%; in assay [6], 61.4%. The inhibition of growth at 10 µg/mL in assay [3] was 16.1%; in assay [5], 16.9%; in assay [7], 18.5%; in assay [8], 26.5%.

For `Cc1cc(O)nc(NC(=S)NC(=O)c2c(-c3ccc(Cl)cc3Cl)noc2C)n1`, the inhibition of growth at 100 µg/mL turned out to be 46.8% in assay [1], 52.3% in assay [2], 46.7% in assay [4] and 49.3% in assay [6]. Further, the inhibition of growth at 10 µg/mL was 6.7% in assay [3], -5.86% in assay [5], -9.78% in assay [7] and -6.24% in assay [8].

Regarding `Cc1cc(Cl)nc(NC(=S)NC(=O)c2c(-c3ccc(Cl)cc3Cl)noc2C)n1`, the inhibition of growth at 100 µg/mL in assay [1] stood at 48.7%; in assay [2], 50.8%; in assay [4], 48.3%; in assay [6] it was 44.2%. Also, the inhibition of growth at 10 µg/mL in assay [3] was 8.36%; in assay [5], 28.9%; in assay [7], -6.84%; in assay [8], 10.2%.

Take `COc1cc(C)nc(NC(=S)NC(=O)c2c(-c3ccc(Cl)cc3Cl)noc2C)n1`: the inhibition of growth at 100 µg/mL in assay [1] came to 61.8%; in assay [2], 69.3%; in assay [4], 59.8%; in assay [6] it was 60.2%. For the same compound, the inhibition of growth at 10 µg/mL in assay [3] stood at 15.7%; in assay [5], 15.3%; in assay [7] it was 12.3%; in assay [8], 30.2%.

Take `CCOC(=O)[C@@H](C)Oc1ccc(Oc2nc3ccc(Cl)cc3o2)cc1` [FENOXAPROP-P-ETHYL]: the inhibition of growth at 100 µg/mL in assay [1] came to 71.8%; in assay [2] it was 42.2%; in assay [4], 48.7%; in assay [6] it was 85.6%. Besides, the inhibition of growth at 10 µg/mL in assay [3] was found to be 16.4%; in assay [5], 16.8%; in assay [7], 58.4%; in assay [8], 35.7%.
